Data: US20100061928A1, “LABELLED ANALOGUES OF HALOBENZAMIDES AS RADIOPHARMACEUTICALS” (Institut National De La Sante et De La Recherche Medicale …, priority 2006, published 2010)
Counter-ions that a name gives are not always drawn.

Legend:
[1] = Elimination of the molecules: cumulative urinary and faecal excretion 0-72 hours; type: in vivo, mouse; settings: for Faecal elimination 0-72 hours (Faeces) / Urinary and faecal elimination 0-72 hours (Total) / Urinary elimination 0-72 hours (Urine): cumulative excretion 0-72 hours; for Faecal elimination 0-72 hours (Faeces) / Urinary elimination 0-72 hours (Urine): mice in metabolic cages; for Urinary and faecal elimination 0-72 hours (Total): urine + faeces
tumour = experiment: Dosimetry with regard to the tumour (MIRD programme, extrapolated to ^131I); settings: for Effective period: extrapolated to 131I labelling; for Biological period: from biodistribution data
[2] = tested on: grafted B16 F0 murine melanoma tumour; experiment: Biodistribution of the ^125I-labelled molecules in the melanoma-bearing mouse (autoradiography of whole-body sections); settings: for Biodistribution, Mean, B 16: B 16 tumour; for tumour concentration, times higher than with BZA: at 72 hours (FIG. 1B); for tumour concentration, % of the injected dose per gram of tumour: from the first hour

## CCN(CC)CCNC(=O)c1cc2c(I)cccc2cn1 [compound 39, N-(2-diethylaminoethyl)-5-iodoisoquinoline-3-carboxamide dihydrochloride]
[1]
  Faecal elimination 0-72 hours (Faeces): 21.2%
  Urinary and faecal elimination 0-72 hours (Total): 71.1%
  Urinary elimination 0-72 hours (Urine): 49.9%
tumour
  Effective period: 43.6 h
  Biological period: 56.3 hours
[2]; 1 H
  Biodistribution, Mean, B 16: 7.27
  Biodistribution, Mean, Ic: 42.97
  Biodistribution, Mean, Sc: 23.01
  Biodistribution, Mean, blood: 2.15
  Biodistribution, Mean, brain: 0.30
  Biodistribution, Mean, kidney: 4.62
  Biodistribution, Mean, liver: 3.86
  Biodistribution, Mean, lungs: 3.68
  Biodistribution, Mean, muscle: 0.74
  Biodistribution, Mean, pancreas: 2.39
  Biodistribution, Mean, spleen: 2.83
  Biodistribution, Mean, thyroid: 16.88
  Biodistribution, Mean, uvea: 18.08
[2]; 3 H
  Biodistribution, Mean, B 16: 7.12
  Biodistribution, Mean, Ic: 68.64
  Biodistribution, Mean, Sc: 19.05
  Biodistribution, Mean, blood: 2.65
  Biodistribution, Mean, brain: 0.09
  Biodistribution, Mean, kidney: 2.66
  Biodistribution, Mean, liver: 2.02
  Biodistribution, Mean, lungs: 2.76
  Biodistribution, Mean, muscle: 0.43
  Biodistribution, Mean, thyroid: 35.71
  Biodistribution, Mean, uvea: 13.87
[2]; 6 H
  Biodistribution, Mean, B 16: 7.92
  Biodistribution, Mean, Ic: 29.16
  Biodistribution, Mean, Sc: 28.44
  Biodistribution, Mean, blood: 2.17
  Biodistribution, Mean, kidney: 2.11
  Biodistribution, Mean, liver: 1.54
  Biodistribution, Mean, lungs: 2.05
  Biodistribution, Mean, thyroid: 48.93
  Biodistribution, Mean, uvea: 18.02
[2]; 24 H
  Biodistribution, Mean, B 16: 7.05
  Biodistribution, Mean, Ic: 1.70
  Biodistribution, Mean, Sc: 0.75
  Biodistribution, Mean, liver: 0.43
  Biodistribution, Mean, thyroid: 88.65
  Biodistribution, Mean, uvea: 14.55
[2]; 72 H
  Biodistribution, Mean, B 16: 3.13
  Biodistribution, Mean, spleen: 1.62
  Biodistribution, Mean, thyroid: 132.79
  Biodistribution, Mean, uvea: 9.73

## CCN(CC)CCNC(=O)c1cnc2cc(I)ccc2n1.Cl.Cl [compound 46, N-(2-diethylaminoethyl)-6-iodoquinoxaline-2-carboxamide dihydrochloride]
[1]
  Faecal elimination 0-72 hours (Faeces): 18.0%
  Urinary and faecal elimination 0-72 hours (Total): 88.2%
  Urinary elimination 0-72 hours (Urine): 70.2%
[1]; urinary versus faecal, 0-72 hours
  elimination route (in words): predominantly in the urine
tumour
  Effective period: 49.3 h
  Biological period: 66.1 hours
[2]; 1 H
  Biodistribution, Mean, B 16: 17.00
  Biodistribution, Mean, Ic: 15.22
  Biodistribution, Mean, Sc: 24.33
  Biodistribution, Mean, blood: 3.45
  Biodistribution, Mean, brain: 2.34
  Biodistribution, Mean, kidney: 16.46
  Biodistribution, Mean, liver: 13.18
  Biodistribution, Mean, lungs: 7.83
  Biodistribution, Mean, muscle: 2.04
  Biodistribution, Mean, pancreas: 7.60
  Biodistribution, Mean, spleen: 14.21
  Biodistribution, Mean, uvea: 33.82
[2]; 3 H
  Biodistribution, Mean, B 16: 27.68
  Biodistribution, Mean, Ic: 14.63
  Biodistribution, Mean, Sc: 20.33
  Biodistribution, Mean, blood: 2.91
  Biodistribution, Mean, brain: 1.03
  Biodistribution, Mean, kidney: 9.30
  Biodistribution, Mean, liver: 8.87
  Biodistribution, Mean, lungs: 5.68
  Biodistribution, Mean, muscle: 0.86
  Biodistribution, Mean, spleen: 4.69
  Biodistribution, Mean, thyroid: 39.76
  Biodistribution, Mean, uvea: 24.79
[2]; 6 H
  Biodistribution, Mean, B 16: 40.70
  Biodistribution, Mean, GB: 33.38
  Biodistribution, Mean, Ic: 17.45
  Biodistribution, Mean, Sc: 21.09
  Biodistribution, Mean, blood: 3.09
  Biodistribution, Mean, kidney: 7.69
  Biodistribution, Mean, liver: 7.53
  Biodistribution, Mean, lungs: 4.46
  Biodistribution, Mean, muscle: 0.87
  Biodistribution, Mean, thyroid: 83.77
  Biodistribution, Mean, uvea: 32.30
[2]; 24 H
  Biodistribution, Mean, B 16: 21.67
  Biodistribution, Mean, liver: 1.49
  Biodistribution, Mean, thyroid: 94.22
  Biodistribution, Mean, uvea: 32.44
[2]; 72 H
  Biodistribution, Mean, B 16: 12.45
  Biodistribution, Mean, Sc: 2.23
  Biodistribution, Mean, uvea: 25.26
[2]; BM, 1 H
  Biodistribution, Mean, BM: 4.58
[2]
  tumour concentration, times higher than with BZA: 16 times
  tumour concentration, % of the injected dose per gram of tumour: 17 % ID/g

## CCCN(CCC)CCCCNC(=O)c1ccc2cc(I)ccc2n1 [compound 49, N-(4-dipropylaminobutyl)-6-iodoquinoline-2-carboxamide dihydrochloride]
[1]
  Faecal elimination 0-72 hours (Faeces): 19.9%
  Urinary and faecal elimination 0-72 hours (Total): 87.1%
  Urinary elimination 0-72 hours (Urine): 67.2%
tumour
  Effective period: 51.2 h
  Biological period: 69.7 hours
[2]; 1 H
  Biodistribution, Mean, B 16: 19.07
  Biodistribution, Mean, Ic: 24.45
  Biodistribution, Mean, Sc: 25.53
  Biodistribution, Mean, blood: 3.31
  Biodistribution, Mean, kidney: 18.29
  Biodistribution, Mean, liver: 13.79
  Biodistribution, Mean, lungs: 8.33
  Biodistribution, Mean, muscle: 2.00
  Biodistribution, Mean, pancreas: 21.47
  Biodistribution, Mean, spleen: 18.88
  Biodistribution, Mean, thyroid: 28.75
  Biodistribution, Mean, uvea: 21.04
[2]; 3 H
  Biodistribution, Mean, B 16: 20.34
  Biodistribution, Mean, GB: 50.82
  Biodistribution, Mean, Ic: 23.54
  Biodistribution, Mean, Sc: 24.89
  Biodistribution, Mean, blood: 3.47
  Biodistribution, Mean, kidney: 13.10
  Biodistribution, Mean, liver: 7.77
  Biodistribution, Mean, lungs: 6.88
  Biodistribution, Mean, muscle: 1.41
  Biodistribution, Mean, pancreas: 9.71
  Biodistribution, Mean, spleen: 16.71
  Biodistribution, Mean, thyroid: 125.51
  Biodistribution, Mean, uvea: 31.76
[2]; 6 H
  Biodistribution, Mean, B 16: 27.38
  Biodistribution, Mean, GB: 55.80
  Biodistribution, Mean, Ic: 26.72
  Biodistribution, Mean, Sc: 22.21
  Biodistribution, Mean, blood: 2.50
  Biodistribution, Mean, kidney: 7.98
  Biodistribution, Mean, liver: 3.89
  Biodistribution, Mean, lungs: 3.34
  Biodistribution, Mean, muscle: 0.45
  Biodistribution, Mean, thyroid: 16.38
  Biodistribution, Mean, uvea: 28.78
[2]; 24 H
  Biodistribution, Mean, B 16: 18.28
  Biodistribution, Mean, Ic: 1.21
  Biodistribution, Mean, Sc: 2.16
  Biodistribution, Mean, uvea: 19.22
[2]; 72 H
  Biodistribution, Mean, B 16: 10.86
  Biodistribution, Mean, thyroid: 53.26
  Biodistribution, Mean, uvea: 19.78
[2]
  tumour concentration, times higher than with BZA: 14 times
  tumour concentration, % of the injected dose per gram of tumour: 19.1 % ID/g

## CCN(CC)CCNC(=O)c1cccc2c(=O)c3cc(I)ccc3[nH]c12 [compound 84, N-(2-diethylaminoethyl)-9,10-dihydro-7-iodo-9-oxoacridine-4-carboxamide hydrochloride]
[1]
  Faecal elimination 0-72 hours (Faeces): 38.4%
  Urinary and faecal elimination 0-72 hours (Total): 48.8%
  Urinary elimination 0-72 hours (Urine): 10.4%
tumour
  Effective period: 112.5 h
  Biological period: 268.9 hours
[2]
  tumour concentration, times higher than with BZA: 22 times
